≈ marks a conversion by molar mass, not a printed value.
System: Staphylococcus aureus
Assay: Antimicrobial activity against Staphylococcus aureus MTCC 96
Type: functional
Settings: not given

In order of falling MIC:
1. COc1ccccc1-c1nc(C2CC(c3ccccc3)=NN2c2ccccc2)no1 (configuration not stated)  55 µg/mL (≈ 139 µM)
2. Clc1ccc(-c2nc(C3CC(c4ccccc4)=NN3c3ccccc3)no2)cc1 (configuration not stated)  20 µg/mL (≈ 49.9 µM)

System: Radical scavenging activity
Assay: Antioxidant activity assessed as DPPH free radical scavenging activity at 50 ug/ml after 20 mins
Type: functional
Settings: not given

In order of rising Activity:
1. COc1ccccc1-c1nc(C2CC(c3ccccc3)=NN2c2ccccc2)no1 (configuration not stated)  34%
2. Clc1ccc(-c2nc(C3CC(c4ccccc4)=NN3c3ccccc3)no2)cc1 (configuration not stated)  42%

System: Bacillus cereus
Assay: Antimicrobial activity against Bacillus cereus MTCC 8372 at 50 ug/ml after 24 hrs by agar disc diffusion method
Type: functional
Settings: MTCC 8372, 24 h, read-out: DIZ

In order of rising zone of inhibition at 50 µg/mL:
1. COc1ccccc1-c1nc(C2CC(c3ccccc3)=NN2c2ccccc2)no1 (configuration not stated)  2 mm
2. Clc1ccc(-c2nc(C3CC(c4ccccc4)=NN3c3ccccc3)no2)cc1 (configuration not stated)  6 mm

System: not listed separately
Assay: Antioxidant activity against ferric chloride-induced lipid peroxidation using egg lecithin at 100 ug/ml after 1 hr
Type: functional
Settings: not given

In order of rising inhibition:
1. COc1ccccc1-c1nc(C2CC(c3ccccc3)=NN2c2ccccc2)no1 (configuration not stated)  60%
2. Clc1ccc(-c2nc(C3CC(c4ccccc4)=NN3c3ccccc3)no2)cc1 (configuration not stated)  73%

System: Bacillus cereus
Assay: Antimicrobial activity against Bacillus cereus MTCC 8372
Type: functional
Settings: not given

In order of rising MIC:
1. Clc1ccc(-c2nc(C3CC(c4ccccc4)=NN3c3ccccc3)no2)cc1 (configuration not stated)  25 µg/mL (≈ 62.4 µM)
2. COc1ccccc1-c1nc(C2CC(c3ccccc3)=NN2c2ccccc2)no1 (configuration not stated)  55 µg/mL (≈ 139 µM)

System: not listed separately
Assay: Antioxidant activity assessed as reducing power of ferric ion at 10 ug/ml after 20 mins
Type: functional
Design: scale not given: the % may be the effect or the level left
Settings: not given

In order of rising Activity:
1. COc1ccccc1-c1nc(C2CC(c3ccccc3)=NN2c2ccccc2)no1 (configuration not stated)  10%
2. Clc1ccc(-c2nc(C3CC(c4ccccc4)=NN3c3ccccc3)no2)cc1 (configuration not stated)  12%

System: not listed separately
Assay: Antiinflammatory activity against heat-induced albumin denaturation at […] preincubated for 15 mins before heat induction by UV-vis spectrophotometer analysis
Type: functional
Settings: not given

In order of rising inhibition:
1. COc1ccccc1-c1nc(C2CC(c3ccccc3)=NN2c2ccccc2)no1 (configuration not stated)  23.9%
2. Clc1ccc(-c2nc(C3CC(c4ccccc4)=NN3c3ccccc3)no2)cc1 (configuration not stated)  53.7%

System: Klebsiella pneumoniae
Assay: Antimicrobial activity against Klebsiella pneumoniae MTCC 3384 at 100 ug/ml after 24 hrs by agar disc diffusion method
Type: functional
Settings: MTCC 3384, 24 h, read-out: DIZ

In order of falling zone of inhibition at 100 µg/mL:
1. Clc1ccc(-c2nc(C3CC(c4ccccc4)=NN3c3ccccc3)no2)cc1 (configuration not stated)  8 mm
2. COc1ccccc1-c1nc(C2CC(c3ccccc3)=NN2c2ccccc2)no1 (configuration not stated)  6 mm

System: Aspergillus flavus
Assay: Antimicrobial activity against Aspergillus flavus MTCC 873 at 50 ug/ml after 24 hrs by agar disc diffusion method
Type: functional
Settings: MTCC 873, 24 h, read-out: DIZ

In order of falling zone of inhibition at 50 µg/mL:
1. Clc1ccc(-c2nc(C3CC(c4ccccc4)=NN3c3ccccc3)no2)cc1 (configuration not stated)  12 mm
2. COc1ccccc1-c1nc(C2CC(c3ccccc3)=NN2c2ccccc2)no1 (configuration not stated)  10 mm

System: Aspergillus niger
Assay: Antimicrobial activity against Aspergillus niger MTCC 281 at 50 ug/ml after 24 hrs by agar disc diffusion method
Type: functional
Settings: MTCC 281, 24 h, read-out: DIZ

In order of falling zone of inhibition at 50 µg/mL:
1. Clc1ccc(-c2nc(C3CC(c4ccccc4)=NN3c3ccccc3)no2)cc1 (configuration not stated)  11 mm
2. COc1ccccc1-c1nc(C2CC(c3ccccc3)=NN2c2ccccc2)no1 (configuration not stated)  8 mm

System: Aspergillus flavus
Assay: Antimicrobial activity against Aspergillus flavus MTCC 873 at 100 ug/ml after 24 hrs by agar disc diffusion method
Type: functional
Settings: MTCC 873, 24 h, read-out: DIZ

In order of falling zone of inhibition at 100 µg/mL:
1. Clc1ccc(-c2nc(C3CC(c4ccccc4)=NN3c3ccccc3)no2)cc1 (configuration not stated)  14 mm
2. COc1ccccc1-c1nc(C2CC(c3ccccc3)=NN2c2ccccc2)no1 (configuration not stated)  12 mm

System: Klebsiella pneumoniae
Assay: Antimicrobial activity against Klebsiella pneumoniae MTCC 3384
Type: functional
Settings: not given

In order of falling MIC:
1. COc1ccccc1-c1nc(C2CC(c3ccccc3)=NN2c2ccccc2)no1 (configuration not stated)  55 µg/mL (≈ 139 µM)
2. Clc1ccc(-c2nc(C3CC(c4ccccc4)=NN3c3ccccc3)no2)cc1 (configuration not stated)  30 µg/mL (≈ 74.8 µM)

System: Escherichia coli
Assay: Antimicrobial activity against Escherichia coli MTCC 724 at 50 ug/ml after 24 hrs by agar disc diffusion method
Type: functional
Settings: MTCC 724, 24 h, read-out: DIZ

In order of falling zone of inhibition at 50 µg/mL:
1. Clc1ccc(-c2nc(C3CC(c4ccccc4)=NN3c3ccccc3)no2)cc1 (configuration not stated)  4 mm
2. COc1ccccc1-c1nc(C2CC(c3ccccc3)=NN2c2ccccc2)no1 (configuration not stated)  4 mm

System: Staphylococcus aureus
Assay: Antimicrobial activity against Staphylococcus aureus MTCC 96 at 100 ug/ml after 24 hrs by agar disc diffusion method
Type: functional
Settings: MTCC 96, 24 h, read-out: DIZ

In order of falling zone of inhibition at 100 µg/mL:
1. Clc1ccc(-c2nc(C3CC(c4ccccc4)=NN3c3ccccc3)no2)cc1 (configuration not stated)  10 mm
2. COc1ccccc1-c1nc(C2CC(c3ccccc3)=NN2c2ccccc2)no1 (configuration not stated)  6 mm

System: not listed separately
Assay: Antioxidant activity against ferric chloride-induced lipid peroxidation using egg lecithin at 10 ug/ml after 1 hr
Type: functional
Settings: not given

In order of falling inhibition:
1. Clc1ccc(-c2nc(C3CC(c4ccccc4)=NN3c3ccccc3)no2)cc1 (configuration not stated)  34%
2. COc1ccccc1-c1nc(C2CC(c3ccccc3)=NN2c2ccccc2)no1 (configuration not stated)  11%

System: Aspergillus niger
Assay: Antimicrobial activity against Aspergillus niger MTCC 281
Type: functional
Settings: not given

In order of falling MIC:
1. COc1ccccc1-c1nc(C2CC(c3ccccc3)=NN2c2ccccc2)no1 (configuration not stated)  20 µg/mL (≈ 50.4 µM)
2. Clc1ccc(-c2nc(C3CC(c4ccccc4)=NN3c3ccccc3)no2)cc1 (configuration not stated)  10 µg/mL (≈ 24.9 µM)

System: not listed separately
Assay: Antioxidant activity against ferric chloride-induced lipid peroxidation using egg lecithin at 50 ug/ml after 1 hr
Type: functional
Settings: not given

In order of falling inhibition:
1. Clc1ccc(-c2nc(C3CC(c4ccccc4)=NN3c3ccccc3)no2)cc1 (configuration not stated)  48%
2. COc1ccccc1-c1nc(C2CC(c3ccccc3)=NN2c2ccccc2)no1 (configuration not stated)  31%

System: Shigella flexneri
Assay: Antimicrobial activity against Shigella flexneri MTCC 1457
Type: functional
Settings: not given

In order of falling MIC:
1. COc1ccccc1-c1nc(C2CC(c3ccccc3)=NN2c2ccccc2)no1 (configuration not stated)  50 µg/mL (≈ 126 µM)
2. Clc1ccc(-c2nc(C3CC(c4ccccc4)=NN3c3ccccc3)no2)cc1 (configuration not stated)  25 µg/mL (≈ 62.4 µM)

System: Staphylococcus aureus
Assay: Antimicrobial activity against Staphylococcus aureus MTCC 96 at 50 ug/ml after 24 hrs by agar disc diffusion method
Type: functional
Settings: MTCC 96, 24 h, read-out: DIZ

In order of falling zone of inhibition at 50 µg/mL:
1. Clc1ccc(-c2nc(C3CC(c4ccccc4)=NN3c3ccccc3)no2)cc1 (configuration not stated)  8 mm
2. COc1ccccc1-c1nc(C2CC(c3ccccc3)=NN2c2ccccc2)no1 (configuration not stated)  2 mm

System: not listed separately
Assay: Antioxidant activity assessed as reducing power of ferric ion at 50 ug/ml after 20 mins
Type: functional
Design: scale not given: the % may be the effect or the level left
Settings: not given

In order of falling Activity:
1. Clc1ccc(-c2nc(C3CC(c4ccccc4)=NN3c3ccccc3)no2)cc1 (configuration not stated)  22%
2. COc1ccccc1-c1nc(C2CC(c3ccccc3)=NN2c2ccccc2)no1 (configuration not stated)  22%

System: Escherichia coli
Assay: Antimicrobial activity against Escherichia coli MTCC 724 at 100 ug/ml after 24 hrs by agar disc diffusion method
Type: functional
Settings: MTCC 724, 24 h, read-out: DIZ

In order of falling zone of inhibition at 100 µg/mL:
1. Clc1ccc(-c2nc(C3CC(c4ccccc4)=NN3c3ccccc3)no2)cc1 (configuration not stated)  18 mm
2. COc1ccccc1-c1nc(C2CC(c3ccccc3)=NN2c2ccccc2)no1 (configuration not stated)  6 mm

System: Aspergillus flavus
Assay: Antimicrobial activity against Aspergillus flavus MTCC 873
Type: functional
Settings: not given

In order of falling MIC:
1. COc1ccccc1-c1nc(C2CC(c3ccccc3)=NN2c2ccccc2)no1 (configuration not stated)  15 µg/mL (≈ 37.8 µM)
2. Clc1ccc(-c2nc(C3CC(c4ccccc4)=NN3c3ccccc3)no2)cc1 (configuration not stated)  10 µg/mL (≈ 24.9 µM)

System: Aspergillus niger
Assay: Antimicrobial activity against Aspergillus niger MTCC 281 at 100 ug/ml after 24 hrs by agar disc diffusion method
Type: functional
Settings: MTCC 281, 24 h, read-out: DIZ

In order of falling zone of inhibition at 100 µg/mL:
1. Clc1ccc(-c2nc(C3CC(c4ccccc4)=NN3c3ccccc3)no2)cc1 (configuration not stated)  20 mm
2. COc1ccccc1-c1nc(C2CC(c3ccccc3)=NN2c2ccccc2)no1 (configuration not stated)  14 mm

System: not listed separately
Assay: Antioxidant activity assessed as reducing power of ferric ion at 100 ug/ml after 20 mins
Type: functional
Design: scale not given: the % may be the effect or the level left
Settings: not given

In order of rising Activity:
1. COc1ccccc1-c1nc(C2CC(c3ccccc3)=NN2c2ccccc2)no1 (configuration not stated)  54%
2. Clc1ccc(-c2nc(C3CC(c4ccccc4)=NN3c3ccccc3)no2)cc1 (configuration not stated)  65%

System: Shigella flexneri
Assay: Antimicrobial activity against Shigella flexneri MTCC 1457 at 50 ug/ml after 24 hrs by agar disc diffusion method
Type: functional
Settings: MTCC 1457, 24 h, read-out: DIZ

In order of rising zone of inhibition at 50 µg/mL:
1. COc1ccccc1-c1nc(C2CC(c3ccccc3)=NN2c2ccccc2)no1 (configuration not stated)  3 mm
2. Clc1ccc(-c2nc(C3CC(c4ccccc4)=NN3c3ccccc3)no2)cc1 (configuration not stated)  6 mm

System: Shigella flexneri
Assay: Antimicrobial activity against Shigella flexneri MTCC 1457 at 100 ug/ml after 24 hrs by agar disc diffusion method
Type: functional
Settings: MTCC 1457, 24 h, read-out: DIZ

In order of falling zone of inhibition at 100 µg/mL:
1. Clc1ccc(-c2nc(C3CC(c4ccccc4)=NN3c3ccccc3)no2)cc1 (configuration not stated)  10 mm
2. COc1ccccc1-c1nc(C2CC(c3ccccc3)=NN2c2ccccc2)no1 (configuration not stated)  8 mm

System: Radical scavenging activity
Assay: Antioxidant activity assessed as DPPH free radical scavenging activity at 10 ug/ml after 20 mins
Type: functional
Settings: not given

In order of falling Activity:
1. Clc1ccc(-c2nc(C3CC(c4ccccc4)=NN3c3ccccc3)no2)cc1 (configuration not stated)  23%
2. COc1ccccc1-c1nc(C2CC(c3ccccc3)=NN2c2ccccc2)no1 (configuration not stated)  14%

System: Bacillus cereus
Assay: Antimicrobial activity against Bacillus cereus MTCC 8372 at 100 ug/ml after 24 hrs by agar disc diffusion method
Type: functional
Settings: MTCC 8372, 24 h, read-out: DIZ

In order of rising zone of inhibition at 100 µg/mL:
1. COc1ccccc1-c1nc(C2CC(c3ccccc3)=NN2c2ccccc2)no1 (configuration not stated)  8 mm
2. Clc1ccc(-c2nc(C3CC(c4ccccc4)=NN3c3ccccc3)no2)cc1 (configuration not stated)  10 mm

System: Radical scavenging activity
Assay: Antioxidant activity assessed as DPPH free radical scavenging activity at 100 ug/ml after 20 mins
Type: functional
Settings: not given

In order of falling Activity:
1. Clc1ccc(-c2nc(C3CC(c4ccccc4)=NN3c3ccccc3)no2)cc1 (configuration not stated)  67%
2. COc1ccccc1-c1nc(C2CC(c3ccccc3)=NN2c2ccccc2)no1 (configuration not stated)  44%

System: Klebsiella pneumoniae
Assay: Antimicrobial activity against Klebsiella pneumoniae MTCC 3384 at 50 ug/ml after 24 hrs by agar disc diffusion method
Type: functional
Settings: MTCC 3384, 24 h, read-out: DIZ

In order of rising zone of inhibition at 50 µg/mL:
1. COc1ccccc1-c1nc(C2CC(c3ccccc3)=NN2c2ccccc2)no1 (configuration not stated)  3 mm
2. Clc1ccc(-c2nc(C3CC(c4ccccc4)=NN3c3ccccc3)no2)cc1 (configuration not stated)  5 mm

System: Escherichia coli
Assay: Antimicrobial activity against Escherichia coli MTCC 724
Type: functional
Settings: not given

In order of rising MIC:
1. Clc1ccc(-c2nc(C3CC(c4ccccc4)=NN3c3ccccc3)no2)cc1 (configuration not stated)  30 µg/mL (≈ 74.8 µM)
2. COc1ccccc1-c1nc(C2CC(c3ccccc3)=NN2c2ccccc2)no1 (configuration not stated)  35 µg/mL (≈ 88.3 µM)

Source: ChEMBL document CHEMBL2406981, “Novel pyrazoline amidoxime and their 1,2,4-oxadiazole analogues: synthesis and pharmacological screening” (Bioorg Med Chem Lett, 2013)
